In patent publication US11312726B2, “Thienodiazepine derivatives and application thereof” (priority 2017, dated 2022):

Key:
BRD4-BD1 = BRD4-BD1 (Homo sapiens (Human), UniProt O60885); test: BRD4 biochemical activity test (TR-FRET), BD1; details: read-out: BRD4 Binding (BD1), IC50
Description: (§1) BRD4 Biochemical Activity Test
(§2) 1) BRD4-BD1 and BRD4-BD2 proteins of BPS Company, polypeptide of ANASPEC Company, and test reagent of PerkinElmer Company were used in the experiments;
(§3) 2) The TR-FRET experimental principle was used in the experiment to screen compounds.
(§4) 3) Relevant control compounds
(§5) 1) Preparation of the Compound Plate:
(§6) Preparation of the compound plate in the experiment was achieved by Echo:
(§7) 2) Preparation of Reaction Reagents:
(§8) Relevant reaction reagents should be prepared on the day of the experiment:
(§9) a) Formulation of 1× assay buffer;
(§10) b) Formulation of 3× component solution for the experiment: […]
(§11) 1. The reagent was taken out and placed on ice to naturally melt for later use;
(§12) 2. “Solution A” (protein solution), “solution B” (polypeptide solution), and “solution C” (test reagent solution) used in the experiment were formulated with the 1× assay buffer, and during the formation of the 3× solution from the components used in the experiment reaction system, the amounts of solutions A, B and C must be enough for the required amounts in the experiment.
(§13) 3) Experimental Operation Steps:
(§14) The experiment plate was a plate that contained a gradient concentration of the compound and a corresponding DMSO solution and was prepared with ECHO before the experiment:
(§15) a) The experiment plate was taken out, and 5 μL/well of “solution A” (protein solution) was added to columns 2-23 of the experiment plate, then 5 μL/well of 1× assay buffer was added to columns 1 and 24 of the experiment plate, and columns 1 and 24 were used as Min control in the experiment system;
(§16) b) Centrifugation at 1000 rpm was carried out for 30 seconds;
(§17) c) The plate was incubated at 23° C. for 20 minutes;
(§18) d) After 20 minutes of incubation, 5 μL/well of “solution B” (polypeptide solution) was added to columns 1-24 of the experiment plate;
(§19) e) Centrifugation at 1000 rpm was carried out for 30 seconds;
(§20) f) The plate was incubated at 23° C. for 20 minutes;
(§21) g) After 20 minutes of incubation, 5 μL/well of “solution C” (test reagent solution) was added to columns 1-24 of the experiment plate;
(§22) h) Centrifugation at 1000 rpm was carried out for 30 seconds;
(§23) i) The plate was incubated at 23° C. for 40 minutes;
(§24) j) The experiment plate was placed on EnVision to read the plate.
(§25) a) The corresponding Max control and Min control of each experiment plate were used to convert to the Z′ value of the experiment plate, and the Z′ value of each plate was ensured to be >0.5;
(§26) b) The IC50 value was calculated from the signal of the control compound by XLFIT5, and ensured to be maintained within 3 times of the average value of historical data.

BRD4-BD2 = BRD4-BD2 (Homo sapiens (Human), UniProt O60885); test: BRD4 biochemical activity test (TR-FRET), BD2; details: read-out: BRD4 Binding (BD2), IC50
Description: as §1, §2, §3, §4, §5, §6, §7, §8, §9, §10, §11, §12, §13, §14, §15, §16, §17, §18, §19, §20, §21, §22, §23, §24, §25, §26

[1] = system: MC38 mouse colon cancer cell transplantation tumor; test: In vivo anti-tumor effect, MC38 mouse colon cancer transplantation tumor model; details: for relative tumor proliferation rate T/C / tumor growth inhibition rate TGI: 20th day after administration
Procedure: In Vivo Anti-Tumor Effect of Compound 32 in MC38 Mouse Colon Cancer Cell Animal Transplantation Tumor Model
Week-age and weight: 6-7 weeks of age, 16-20 grams of body weight
Supplier: Shanghai SLAC Laboratory Animal Co., Ltd.
3. Experiment Methods and Steps
Mouse colon cancer MC38 cells (OBiO Technology (Shanghai) Corp., Ltd.) were cultured in monolayer in vitro, and the culture conditions were DMEM culture medium (Gibco; article number: 12100) with 10% fetal bovine serum. The culture was performed at 37° C. in 5% CO2 in an incubator. Conventional digestion treatment with 0.25% pancreatin-EDTA for passage was carried out. When the cells were in the exponential growth phase and the saturation was 80%-90%, the cells were harvested, counted, and inoculated.
3.2 Tumor Cell Inoculation
0.1 mL of 2×10^5 MC38 cells were subcutaneously inoculated into the right-back of each mouse. The random grouping and administration was carried out according to the tumor volume when the average tumor volume reached about 70 mm^3.
Tumor diameter was measured twice a week with vernier calipers. The equation for calculating tumor volume was V=0.5×a×b^2, wherein a and b represented the major and minor diameters of the tumor, respectively.
The tumor inhibition effect of the compound was evaluated by TGI (%) or relative tumor proliferation rate T/C (%). Relative tumor proliferation rate T/C (%)=TRTV/CRTV×100% (TRTV: RTV of the treatment group; CRTV: RTV of the negative control group). The relative tumor volume (RTV) was calculated according to the results of the tumor measurement. The calculation equation was RTV=Vt/V0, where V0 was the average tumor volume measured at the grouping and administration (i.e. D0), and Vt was the average tumor volume at the time of a certain measurement. TRTV and CRTV were obtained from the data on the same day.
TGI (%) reflected the tumor growth inhibition rate.
At the end of the experiment, the tumor weight would be measured and the Tweight/Cweight percentage would be calculated. Tweight and Cweight represented the tumor weights of the administration group and the medium control group, respectively.
Statistical analysis was performed using SPSS software based on the tumor volume and the tumor weight at the end of the experiment. The comparison between two groups was analyzed by t-test, and the comparison between three or more groups was analyzed by one-way ANOVA.

[2] = each administration group (15, 25, 50 mg/kg)

Structure (SMILES): Cc1sc2c(c1C)C(c1ccc(Cl)cc1)=N[C@@H](CC(=O)Nc1ccc3c(c1)COC3=O)c1nnc(C)n1-2 [Compound 32]
- IC50 (BRD4-BD1): 66 nM
- IC50 (BRD4-BD2): 10 nM
- relative tumor proliferation rate T/C ([1]; 15 mg/kg p.o. BID × 20 days): 33.68%
- tumor growth inhibition rate TGI ([1]; 15 mg/kg p.o. BID × 20 days): 68.81%
- relative tumor proliferation rate T/C ([1]; 25 mg/kg p.o. BID × 20 days): 27.59%
- tumor growth inhibition rate TGI ([1]; 25 mg/kg p.o. BID × 20 days): 75.21%
- relative tumor proliferation rate T/C ([1]; 50 mg/kg p.o. BID × 20 days): 10.04%
- tumor growth inhibition rate TGI ([1]; 50 mg/kg p.o. BID × 20 days): 93.46%
- tolerance of the animals [1, 2]: good tolerance
- tumor inhibition effect (in words) [1, 2]: Significant tumor inhibition effects
